Data reported in US10028992B2, “Methods of treating muscular dystrophy” (BOARD OF REGENTS OF THE NEVADA SYSTEM OF HIGHER EDUCATION …, priority 2012, dated 2018).

System: α7 integrin promoter
Test: muscle cell-based assay: α7βgal+/− myoblasts/myotubes, LacZ reporter, β-galactosidase cleavage of FDG
Parameters: species or system mouse; Results in α7+/− β-galactosidase assay: scale not given here
How it was run: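 Primary α7βgal+/− mouse myoblasts (LacZ knocked into α7 integrin exon 1, promoter retained), differentiated; promoter activity read as β-galactosidase conversion of non-fluorescent FDG to fluorescein. Hits followed by dose-response, western analysis and myostatin counterscreen.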

Compound: Cc1cc(C)c(/C=C2\C(=O)Nc3ccccc32)[nH]1 [drawing 512]
- Results in α7+/− β-galactosidase assay (Myotubes, 0.5 uM): −0.1661
- Results in α7+/− β-galactosidase assay (Myotubes, 1 uM): −0.09119
- Results in α7+/− β-galactosidase assay (Myotubes, 5 uM): −0.3196
- Results in α7+/− β-galactosidase assay (Myotubes, 10 uM): 0.09661
- Results in α7+/− β-galactosidase assay (Myotubes, 20 uM): −0.05031
- Results in α7+/− β-galactosidase assay (Myotubes, 40 uM): 0.151

Compound: Cc1cc(C)c(/C=C2\C(=O)Nc3ccccc32)[nH]1 [drawing 513]
- Results in α7+/− β-galactosidase assay (Myotubes, 0.5 uM): −0.1009
- Results in α7+/− β-galactosidase assay (Myotubes, 1 uM): −0.09355
- Results in α7+/− β-galactosidase assay (Myotubes, 5 uM): 0.09724
- Results in α7+/− β-galactosidase assay (Myotubes, 10 uM): 1.02
- Results in α7+/− β-galactosidase assay (Myotubes, 20 uM): 0.05028
- Results in α7+/− β-galactosidase assay (Myotubes, 40 uM): 0.1378

Compound: O=C1Nc2ccccc2/C1=C1/Nc2ccccc2/C1=N\O [drawing 514]
- Results in α7+/− β-galactosidase assay (Myotubes, 0.5 uM): −0.111
- Results in α7+/− β-galactosidase assay (Myotubes, 1 uM): −0.1122
- Results in α7+/− β-galactosidase assay (Myotubes, 5 uM): −0.8688
- Results in α7+/− β-galactosidase assay (Myotubes, 10 uM): −1.081
- Results in α7+/− β-galactosidase assay (Myotubes, 20 uM): −0.5041
- Results in α7+/− β-galactosidase assay (Myotubes, 40 uM): −0.6481

Compound: CCN(CC)CCNC(=O)c1c(C)[nH]c(CC2C(=O)Nc3ccc(F)cc32)c1C (stereo not drawn) [drawing 515]
- Results in α7+/− β-galactosidase assay (Myotubes, 0.5 uM): −0.04962
- Results in α7+/− β-galactosidase assay (Myotubes, 1 uM): −0.02655
- Results in α7+/− β-galactosidase assay (Myotubes, 5 uM): −0.4387
- Results in α7+/− β-galactosidase assay (Myotubes, 10 uM): −1.86
- Results in α7+/− β-galactosidase assay (Myotubes, 20 uM): −0.9178
- Results in α7+/− β-galactosidase assay (Myotubes, 40 uM): 0.9191

Compound: Cc1[nH]c(/C=C2\C(=O)Nc3ccc([S+](=O)([O-])Cc4c(Cl)cccc4Cl)cc32)c(C)c1C(=O)C1CCCN1CN1CCCC1 (stereo not drawn) [drawing 517]
- Results in α7+/− β-galactosidase assay (Myotubes, 0.5 uM): −0.02882
- Results in α7+/− β-galactosidase assay (Myotubes, 1 uM): −0.08557
- Results in α7+/− β-galactosidase assay (Myotubes, 5 uM): 0.02824
- Results in α7+/− β-galactosidase assay (Myotubes, 10 uM): −0.2838
- Results in α7+/− β-galactosidase assay (Myotubes, 20 uM): −0.348
- Results in α7+/− β-galactosidase assay (Myotubes, 40 uM): −0.7868

Compound: O=C1Nc2ccccc2/C1=C1/Nc2ccccc2/C1=N\O [drawing 518]
- Results in α7+/− β-galactosidase assay (Myotubes, 0.5 uM): 0.09617
- Results in α7+/− β-galactosidase assay (Myotubes, 1 uM): 0.05181
- Results in α7+/− β-galactosidase assay (Myotubes, 5 uM): −0.32
- Results in α7+/− β-galactosidase assay (Myotubes, 10 uM): −0.625
- Results in α7+/− β-galactosidase assay (Myotubes, 20 uM): −0.3346
- Results in α7+/− β-galactosidase assay (Myotubes, 40 uM): −0.5024

Compound: O=C(CNC(=O)c1cccc(F)c1)N/N=C/c1cc(Br)ccc1OCc1ccccc1 [drawing 519]
- Results in α7+/− β-galactosidase assay (Myoblasts, 0.5 uM): −0.00993
- Results in α7+/− β-galactosidase assay (Myoblasts, 1 uM): 0.03356
- Results in α7+/− β-galactosidase assay (Myoblasts, 5 uM): 0.1316
- Results in α7+/− β-galactosidase assay (Myoblasts, 10 uM): 0.088
- Results in α7+/− β-galactosidase assay (Myoblasts, 20 uM): −0.1376
- Results in α7+/− β-galactosidase assay (Myoblasts, 40 uM): 0.1351

Compound: Cc1ccccc1-n1c(S)nnc1Cc1cccs1 [drawing 520]
- Results in α7+/− β-galactosidase assay (Myoblasts, 0.5 uM): 0.09422
- Results in α7+/− β-galactosidase assay (Myoblasts, 1 uM): 0.03188
- Results in α7+/− β-galactosidase assay (Myoblasts, 5 uM): 0.1364
- Results in α7+/− β-galactosidase assay (Myoblasts, 10 uM): 0.3732
- Results in α7+/− β-galactosidase assay (Myoblasts, 20 uM): 0.1056
- Results in α7+/− β-galactosidase assay (Myoblasts, 40 uM): 0.01115

Compound: CCCCN(CC)Cc1ccc(C/N=C(\S)Nc2ccccc2F)o1 [drawing 521]
- Results in α7+/− β-galactosidase assay (Myoblasts, 0.5 uM): 0.07412
- Results in α7+/− β-galactosidase assay (Myoblasts, 1 uM): 0.014
- Results in α7+/− β-galactosidase assay (Myoblasts, 5 uM): 0.01263
- Results in α7+/− β-galactosidase assay (Myoblasts, 10 uM): 0.224
- Results in α7+/− β-galactosidase assay (Myoblasts, 20 uM): −0.04634
- Results in α7+/− β-galactosidase assay (Myoblasts, 40 uM): −0.1183

Compound: COc1ccc2c(c1)C(=C(C#N)C#N)C(=O)N2CCc1ccccc1 [drawing 522]
- Results in α7+/− β-galactosidase assay (Myoblasts, 0.5 uM): 0.199
- Results in α7+/− β-galactosidase assay (Myoblasts, 1 uM): 0.06668
- Results in α7+/− β-galactosidase assay (Myoblasts, 5 uM): −0.157
- Results in α7+/− β-galactosidase assay (Myoblasts, 10 uM): 0.1343
- Results in α7+/− β-galactosidase assay (Myoblasts, 20 uM): −0.3414
- Results in α7+/− β-galactosidase assay (Myoblasts, 40 uM): −0.3915

Compound: Cn1cc(CN(CCO)Cc2cccs2)c(-c2ccccc2F)n1 [drawing 523]
- Results in α7+/− β-galactosidase assay (Myoblasts, 0.5 uM): 0.1756
- Results in α7+/− β-galactosidase assay (Myoblasts, 1 uM): 0.1912
- Results in α7+/− β-galactosidase assay (Myoblasts, 5 uM): −0.02798
- Results in α7+/− β-galactosidase assay (Myoblasts, 10 uM): 0.2648
- Results in α7+/− β-galactosidase assay (Myoblasts, 20 uM): 0.0346
- Results in α7+/− β-galactosidase assay (Myoblasts, 40 uM): −0.1208

Compound: CCN1C(=O)/C(=C(/C#N)c2nc3ccccc3[nH]2)c2ccccc21 [drawing 524]
- Results in α7+/− β-galactosidase assay (Myoblasts, 0.5 uM): −0.1641
- Results in α7+/− β-galactosidase assay (Myoblasts, 1 uM): −0.1562
- Results in α7+/− β-galactosidase assay (Myoblasts, 5 uM): −0.1933
- Results in α7+/− β-galactosidase assay (Myoblasts, 10 uM): −0.1296
- Results in α7+/− β-galactosidase assay (Myoblasts, 20 uM): −0.2594
- Results in α7+/− β-galactosidase assay (Myoblasts, 40 uM): −0.241

Compound: Cc1ccc2c(c1)/C(=C/c1ccc(F)cc1)C(=O)N2 [drawing 525]
- Results in α7+/− β-galactosidase assay (Myoblasts, 0.5 uM): 0.006732
- Results in α7+/− β-galactosidase assay (Myoblasts, 1 uM): −0.03019
- Results in α7+/− β-galactosidase assay (Myoblasts, 5 uM): −0.1238
- Results in α7+/− β-galactosidase assay (Myoblasts, 10 uM): −0.2542
- Results in α7+/− β-galactosidase assay (Myoblasts, 20 uM): −0.5127
- Results in α7+/− β-galactosidase assay (Myoblasts, 40 uM): −0.7544

Compound: O=C1Nc2ccccc2/C1=C\c1ccnc2ccccc12 [drawing 526]
- Results in α7+/− β-galactosidase assay (Myoblasts, 0.5 uM): 0.2132
- Results in α7+/− β-galactosidase assay (Myoblasts, 1 uM): 0.0742
- Results in α7+/− β-galactosidase assay (Myoblasts, 5 uM): 0.06287
- Results in α7+/− β-galactosidase assay (Myoblasts, 10 uM): 0.1705
- Results in α7+/− β-galactosidase assay (Myoblasts, 20 uM): −0.2337
- Results in α7+/− β-galactosidase assay (Myoblasts, 40 uM): −0.1575

Compound: CCc1c(C)sc(NC(=O)c2ccco2)c1C#N [drawing 527]
- Results in α7+/− β-galactosidase assay (Myoblasts, 0.5 uM): 0.01962
- Results in α7+/− β-galactosidase assay (Myoblasts, 1 uM): 0.03303
- Results in α7+/− β-galactosidase assay (Myoblasts, 5 uM): −0.06162
- Results in α7+/− β-galactosidase assay (Myoblasts, 10 uM): −0.02233
- Results in α7+/− β-galactosidase assay (Myoblasts, 20 uM): −0.1898
- Results in α7+/− β-galactosidase assay (Myoblasts, 40 uM): −0.1237

Compound: CCc1c(C)sc(NC(=O)c2ccco2)c1C#N [drawing 528]
- Results in α7+/− β-galactosidase assay (Myoblasts, 0.5 uM): 0.08233
- Results in α7+/− β-galactosidase assay (Myoblasts, 1 uM): 0.08072
- Results in α7+/− β-galactosidase assay (Myoblasts, 5 uM): 0.4585
- Results in α7+/− β-galactosidase assay (Myoblasts, 10 uM): 0.07353
- Results in α7+/− β-galactosidase assay (Myoblasts, 20 uM): 0.153
- Results in α7+/− β-galactosidase assay (Myoblasts, 40 uM): 0.1981

Compound: O=C1Nc2ccccc2/C1=C/c1ccccc1Cl [drawing 529]
- Results in α7+/− β-galactosidase assay (Myoblasts, 0.5 uM): 0.2214
- Results in α7+/− β-galactosidase assay (Myoblasts, 1 uM): 0.2193
- Results in α7+/− β-galactosidase assay (Myoblasts, 5 uM): −0.03271
- Results in α7+/− β-galactosidase assay (Myoblasts, 10 uM): −0.1355
- Results in α7+/− β-galactosidase assay (Myoblasts, 20 uM): −0.2535
- Results in α7+/− β-galactosidase assay (Myoblasts, 40 uM): −0.6555

Compound: COc1cccc(CN2CCN(Cc3ccco3)CC2)c1.O=C(O)C(=O)O [drawing 530]
- Results in α7+/− β-galactosidase assay (Myoblasts, 0.5 uM): 0.2392
- Results in α7+/− β-galactosidase assay (Myoblasts, 1 uM): 0.1359
- Results in α7+/− β-galactosidase assay (Myoblasts, 5 uM): 0.06492
- Results in α7+/− β-galactosidase assay (Myoblasts, 10 uM): −0.03174
- Results in α7+/− β-galactosidase assay (Myoblasts, 20 uM): 0.218
- Results in α7+/− β-galactosidase assay (Myoblasts, 40 uM): 0.2155

Compound: CC(C)Oc1ccc(C(=O)/C=C2\C(=O)Nc3ccccc32)cc1 [drawing 531]
- Results in α7+/− β-galactosidase assay (Myoblasts, 0.5 uM): 0.3276
- Results in α7+/− β-galactosidase assay (Myoblasts, 1 uM): 0.2225
- Results in α7+/− β-galactosidase assay (Myoblasts, 5 uM): −0.3766
- Results in α7+/− β-galactosidase assay (Myoblasts, 10 uM): −0.6765
- Results in α7+/− β-galactosidase assay (Myoblasts, 20 uM): −0.7978
- Results in α7+/− β-galactosidase assay (Myoblasts, 40 uM): −0.9731

Compound: COc1ccc(NC(=O)C2(N(C(=O)Cn3nnnc3N)c3ccc(OC)cc3)CCCCC2)cc1 [drawing 532]
- Results in α7+/− β-galactosidase assay (Myoblasts, 0.5 uM): 0.2391
- Results in α7+/− β-galactosidase assay (Myoblasts, 1 uM): 0.1433
- Results in α7+/− β-galactosidase assay (Myoblasts, 5 uM): 0.4897
- Results in α7+/− β-galactosidase assay (Myoblasts, 10 uM): −0.1284
- Results in α7+/− β-galactosidase assay (Myoblasts, 20 uM): −0.274
- Results in α7+/− β-galactosidase assay (Myoblasts, 40 uM): −0.3931

Compound: COc1ccc(CCNC(=O)Cn2nnc(C(=O)Nc3ccc(Br)cc3)c2N)cc1OC [drawing 533]
- Results in α7+/− β-galactosidase assay (Myoblasts, 0.5 uM): 0.1152
- Results in α7+/− β-galactosidase assay (Myoblasts, 1 uM): 0.03848
- Results in α7+/− β-galactosidase assay (Myoblasts, 5 uM): −0.06784
- Results in α7+/− β-galactosidase assay (Myoblasts, 10 uM): −0.0702
- Results in α7+/− β-galactosidase assay (Myoblasts, 20 uM): −0.3276
- Results in α7+/− β-galactosidase assay (Myoblasts, 40 uM): −0.5608

Compound: CC1(C)Cc2c(cnn2-c2cccc(F)c2)C(NC(=O)CCc2cnccn2)C1 (stereo not drawn) [drawing 534]
- Results in α7+/− β-galactosidase assay (Myoblasts, 0.5 uM): 0.2096
- Results in α7+/− β-galactosidase assay (Myoblasts, 1 uM): 0.1101
- Results in α7+/− β-galactosidase assay (Myoblasts, 5 uM): −0.01619
- Results in α7+/− β-galactosidase assay (Myoblasts, 10 uM): −0.03841
- Results in α7+/− β-galactosidase assay (Myoblasts, 20 uM): 0.02411
- Results in α7+/− β-galactosidase assay (Myoblasts, 40 uM): −0.09429

Compound: O=C1Nc2ccccc2/C1=C/c1cccnc1 [drawing 535]
- Results in α7+/− β-galactosidase assay (Myoblasts, 0.5 uM): 0.259
- Results in α7+/− β-galactosidase assay (Myoblasts, 1 uM): 0.1621
- Results in α7+/− β-galactosidase assay (Myoblasts, 5 uM): −0.1077
- Results in α7+/− β-galactosidase assay (Myoblasts, 10 uM): −0.235
- Results in α7+/− β-galactosidase assay (Myoblasts, 20 uM): −0.5331
- Results in α7+/− β-galactosidase assay (Myoblasts, 40 uM): −0.7528
